According to patent publication US6951848B2, “Functionalized heterocycles as modulators of chemokine receptor function and methods of use therefor” (Millennium Pharmaceuticals, Inc.,, priority 2001, dated 2005):

What was measured:
CCR-5 = molecular target: T1, CCR-5 (Homo sapiens, UniProt P51681); assay: 125I-gp120/sCD4/CCR-5 receptor binding assay; conditions: membranes from CCR-5/L 1.2 cells, 3 nM sCD4, 0.1 nM 125I-gp120 (HIV-1 JR-FL); read-out: IC50 for inhibition of binding of sCD-4/GP-120 to CCR-5
T1 construct: expressed in transfected cells; host or cells: L1.2 cells (CCR-5/L1.2 transfectants), membranes
Description: CCR-5 Receptor Binding Assay The compounds of the present invention were evaluated using the following CCR-5 receptor binding assay. The ^125I-gp120/sCD4/CCR-5 binding assay was carried out similarly as described in Wu et al., Nature, 1996;384:179-183. Briefly, the envelope gp120 protein derived from HIV-1 JR-FL (Trkola et al., Nature, 1996;384:184-186), an M-tropic strain, was iodinated using solid phase lactoperoxidase to a specific activity of 20 μCi/μg. For each binding reaction (in a final volume of 100 μL binding buffer [50 mM HEPES, pH 7.5, 1 mM CaCl2, 5 mM MgCl2, and 0.5% BSA]), 25 μL (2.5 μg) of membranes prepared from CCR-5/L 1.2 cells were mixed with 25 μL (3 nM) sCD4, followed by 25 μL (0.1 nM) radio-labeled gp120 in the presence or absence of 25 μL compound dissolved in DMSO (final concentration of DMSO 0.5%). The reactions were incubated at room temperature for 45 to 60 minutes and stopped by transferring the mixture to GFB filter plates, which were then washed 3 to 4 times with binding buffer containing 0.5 M NaCl. The plates were dried and MicroScint scintillation fluid was added before counting. […] The compounds of Examples 56 and 66 had IC50s of about […]. […] Preferred compounds can inhibit the binding of sCD-4/GP-120 to CCR-5 with IC50s of about 10 μM to about 100 μM or about 1 nM to about 10 μM

T1 sequence (P51681 whole entry): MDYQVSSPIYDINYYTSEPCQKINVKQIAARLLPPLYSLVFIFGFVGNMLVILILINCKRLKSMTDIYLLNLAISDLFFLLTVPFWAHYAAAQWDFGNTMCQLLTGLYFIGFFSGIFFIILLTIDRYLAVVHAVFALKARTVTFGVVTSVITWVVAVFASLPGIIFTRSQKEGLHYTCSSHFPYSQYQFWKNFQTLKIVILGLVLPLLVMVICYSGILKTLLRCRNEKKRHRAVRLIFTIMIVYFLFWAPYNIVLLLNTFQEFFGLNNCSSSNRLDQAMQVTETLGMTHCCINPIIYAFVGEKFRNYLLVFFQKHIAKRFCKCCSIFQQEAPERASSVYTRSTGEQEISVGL

- melting point: 118 to 121 °C
- IC50 (CCR-5): 18 µM
SMILES: Cc1[nH]c2ccc(OCCN3CCC(c4ccccc4)C3)cc2c1C(=O)OCc1ccccc1.Cl (centres unmarked) [Example 5, 1-[2-(3-benzyloxycarbonyl-2-methyl-1H-indol-5-yloxy)-ethyl]-3-phenyl-pyrrolidinium; Chloride]
